What was measured:
Assay type in all cases: in vivo
[1] = system: Matricaria inodora (MATIN); experiment: Herbicidal pre-emergence action, section C (Table C6); conditions: visual grading after ca. 3 weeks
Excerpt: Seeds of mono- and dicotyledonous weed plants and crop plants were sown, in plastic or organic planting pots, in sandy loam and covered with soil. The compounds according to the invention, formulated in the form of wettable powders (WP) or as emulsifiable concentrates (EC), were applied to the surface of the covering soil as aqueous suspension or emulsion, with the addition of 0.5% of an additive, at an application rate of 600 l of water/ha (converted). Following treatment, the pots were placed in a greenhouse and kept under optimum growth conditions for the test plants. The visual grading of the damage to the test plants was carried out after ca. 3 weeks in comparison to untreated controls (herbicidal effect in percent (%): 100% effect=plants have died off, 0% effect=as control plants).

[2] = system: Alopecurus myosuroides (ALOMY); experiment: Herbicidal pre-emergence action, section C (Table C2); conditions: visual grading after ca. 3 weeks vs untreated controls
Procedure, shortened: (§1)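 Weed and crop seeds sown in sandy loam, covered with soil, then WP or EC formulations sprayed onto the soil surface as aqueous suspension/emulsion with 0.5% additive at 600 l water/ha. Kept in greenhouse under optimum conditions; damage graded visually after ca. 3 weeks versus untreated controls (0% = as control, 100% = plants dead).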

[3] = system: Polygonum convolvulus (POLCO); experiment: Herbicidal pre-emergence action, section C (Table C7); conditions: visual grading after ca. 3 weeks
Procedure, shortened: as §1

Lolium rigidum (LOLRI) [4] = experiment: Herbicidal pre-emergence action, section A (Table A5); conditions: visual grading after ca. 3 weeks vs untreated controls; for pre-emergence activity against LOLRI in %: application rate 320 g/ha
Procedure, shortened: (§2)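 In this greenhouse test, sown seeds under soil cover received the compounds as suspensions or emulsions, with 0.5% additive, at 600 l water/ha before emergence. Damage was assessed by eye after about 3 weeks, compared with untreated controls.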

[5] = system: Amaranthus retroflexus (AMARE); experiment: Herbicidal post-emergence action, section B (Table B11); conditions: application rate 320 g/ha, visual rating about 3 weeks after treatment vs untreated controls
Procedure, shortened: (§3)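 Activity was scored visually as percent of untreated controls about 3 weeks after spraying, where 100% meant dead plants and 0% meant no difference. Plants were treated at the one-leaf stage with WP or EC formulations in water containing 0.5% additive, applied at 600 liters per hectare.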

Veronica persica (VERPE) [6] = experiment: Herbicidal pre-emergence action, section A (Table A10)
Procedure, shortened: as §2

Lolium rigidum (LOLRI) [7] = experiment: Herbicidal post-emergence action, section B (Table B5); conditions: visual rating about 3 weeks after treatment vs untreated controls
Procedure, shortened: as §3

[8] = system: Amaranthus retroflexus (AMARE); experiment: Herbicidal pre-emergence action, section C (Table C11); conditions: visual grading after ca. 3 weeks
Procedure, shortened: as §1

Veronica persica (VERPE) [9] = experiment: Herbicidal post-emergence action, section E (Table E9); conditions: visual assessment ca. 3 weeks after spraying
Procedure, shortened: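 Greenhouse-grown plants in sandy loam were sprayed post-emergence at the single-leaf stage, 2 to 3 weeks after sowing. Compounds were applied as WP or EC in water with 0.5% additive at 600 l water/ha. After ca. 3 weeks, damage was scored visually versus untreated controls (0% = as control, 100% = dead).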

[10] = system: Echinochloa crus-galli (ECHCG); experiment: Herbicidal post-emergence action, section B (Table B3); conditions: rated visually after about 3 weeks
Procedure, shortened: as §3

Glycine max (GLXMA) = experiment: Post-emergence effects on crop plants, section F (Table F4); conditions: crop plant damage, application rate 80 g/ha
Procedure, shortened: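 Crops grown in sandy loam in the greenhouse were sprayed post-emergence at the single-leaf stage, 2-3 weeks after sowing. Compounds were formulated as WP or EC with 0.5% additive and applied in 600 l water/ha at 320 g/ha or below. Damage was scored visually about 3 weeks later as % effect versus untreated controls (100% = dead).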

Compound	pre-emergence activity against ALOMY in % ([2]; application rate 80 g/ha)	pre-emergence activity against POLCO in % ([3]; application rate 320 g/ha)	pre-emergence activity against LOLRI in % (Lolium rigidum (LOLRI) [4])	post-emergence activity against AMARE in % [5]	pre-emergence activity against AMARE in % ([8]; application rate 320 g/ha)	post-emergence activity against VERPE in % (Veronica persica (VERPE) [9]; application rate 80 g/ha)	post-emergence activity against ECHCG in % ([10]; application rate 320 g/ha)	post-emergence activity against GLXMA in % (Glycine max (GLXMA))	pre-emergence activity against MATIN in % ([1]; application rate 320 g/ha)	pre-emergence activity against POLCO in % ([3]; application rate 80 g/ha)	pre-emergence activity against VERPE in % (Veronica persica (VERPE) [6]; application rate 1280 g/ha)	post-emergence activity against LOLRI in % (Lolium rigidum (LOLRI) [7]; application rate 1280 g/ha)	post-emergence activity against VERPE in % (Veronica persica (VERPE) [9]; application rate 320 g/ha)	post-emergence activity against ECHCG in % ([10]; application rate 1280 g/ha)	pre-emergence activity against ALOMY in % ([2]; application rate 320 g/ha)	other results
COCC1(C(=O)N2CSc3cc(C)c(-c4ccccc4F)nc32)CC(Cl)=NO1 (stereo not drawn) [Example I-128]	90%	90%	100%	90%	90%	80%	90%	–	–	–	–	–	–	–	–	pre-emergence activity against MATIN in % ([1]; application rate 80 g/ha): 80%; pre-emergence activity against VERPE in % (Veronica persica (VERPE) [6]; application rate 320 g/ha): 90%; post-emergence activity against LOLRI in % (Lolium rigidum (LOLRI) [7]; application rate 320 g/ha): 90%
COC(=O)CCC(=O)N1CSc2cc(C)c(-c3ccccc3F)nc21 [Example I-010]	90%	–	100%	90%	90%	–	–	0%	90%	80%	90%	90%	80%	90%	–	–
Cc1cc2c(nc1-c1ccccc1F)N(C(=O)C13CCCC1C(Cl)=NO3)CS2 (stereo not drawn) [Example I-104]	–	–	100%	90%	–	80%	90%	–	–	80%	90%	–	–	–	100%	pre-emergence activity against MATIN in % ([1]; application rate 800 g/ha (so in the source)): 90%; post-emergence activity against LOLRI in % (Lolium rigidum (LOLRI) [7]; application rate 320 g/ha): 90%; pre-emergence activity against AMARE in % ([8]; application rate 80 g/ha): 80%
Cc1cc2c(nc1-c1ccccc1F)N(S(=O)(=O)Cc1ccc(F)cc1)CS2 [Example I-122]	–	–	100%	90%	–	–	–	10%	80%	80%	90%	90%	90%	100%	100%	–
Cc1cc2c(nc1-c1ccccc1)N(C(=O)C1(C)CC(Cl)=NO1)CS2 (stereo not drawn) [Example I-088]	–	90%	100%	90%	90%	–	90%	0%	90%	–	90%	90%	80%	–	90%	–
CCS(=O)(=O)N1CSc2cc(C)c(-c3ccccc3F)nc21 [Example I-060, 3-(ethylsulfonyl)-5-(2-fluorophenyl)-6-methyl-2,3-dihydro[1,3]thiazolo[4,5-b]pyridine]	–	–	–	–	–	–	–	–	–	–	–	–	–	–	–	pest or weed control at 320 g/ha ([1]; Tripleurospermum inodorum, pre-emergence, 504 h, application rate 320 g/ha, read-out: pre-emergence activity against MATIN in %): 90%; pest or weed control at 80 g/ha ([2]; Alopecurus myosuroides, pre-emergence, 504 h, application rate 80 g/ha, read-out: pre-emergence activity against ALOMY in %): 100%; pest or weed control at 80 g/ha ([3]; Fallopia convolvulus, pre-emergence, 504 h, application rate 80 g/ha, read-out: pre-emergence activity against POLCO in %): 80%; pest or weed control at 1280 g/ha (Lolium rigidum (LOLRI) [4]; Lolium rigidum, pre-emergence, 504 h, application rate 1280 g/ha, read-out: pre-emergence activity against LOLRI in %): 100%; pest or weed control at 320 g/ha ([5]; Amaranthus retroflexus, post-emergence, 504 h, read-out: post-emergence activity against AMARE in %): 90%; pest or weed control at 1280 g/ha (Veronica persica (VERPE) [6]; Veronica persica, 504 h, application rate 1280 g/ha, read-out: pre-emergence activity against VERPE in %): 90%; pest or weed control at 1280 g/ha (Lolium rigidum (LOLRI) [7]; Lolium rigidum, post-emergence, 504 h, application rate 1280 g/ha, read-out: post-emergence activity against LOLRI in %): 90%; pest or weed control at 320 g/ha ([8]; Amaranthus retroflexus, pre-emergence, 504 h, application rate 320 g/ha, read-out: pre-emergence activity against AMARE in %): 90%; pest or weed control at 80 g/ha (Veronica persica (VERPE) [9]; Veronica persica, 504 h, application rate 80 g/ha, read-out: post-emergence activity against VERPE in %): 80%; pest or weed control at 1280 g/ha ([10]; Echinochloa crus-galli, 504 h, application rate 1280 g/ha, read-out: post-emergence activity against ECHCG in %): 90%
Cc1cc2c(nc1-c1ccccc1F)N(C(=O)C1(C)CC(Cl)=NO1)CS2 (stereo not drawn) [Example I-083]	90%	90%	100%	90%	90%	90%	–	–	90%	–	90%	90%	–	90%	–	–
